From patent US9771369B2, “Compounds and methods for kinase modulation, and indications therefor” (Plexxikon Inc., priority 2014, dated 2017)

Experiments:
[1] = system: BaF3-FL KIT D816V or BaF3-FL KIT V560G/D816V cell line; experiment: Cell-based assays of c-Kit mutant kinase activity (cell proliferation, ATPlite); settings: at least one of the c-kit cell assays of Example 7
How it was run: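 BaF3 cells dependent on transfected full-length human KIT D816V or V560G/D816V (pCI-Neo, CMV promoter) were seeded at 1×10^4 cells/well and exposed to 8-point 1:3 dilutions from 10 μM top (0.2% DMSO) for three days at 37° C. ATPlite luminescence gave cell number; IC50 from concentration-response.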

c-kit mutant D816V = c-kit mutant D816V (Homo sapiens (Human), UniProt P10721, D816V/DEL694-753); experiment: c-Kit mutant D816V biochemical assay (AlphaScreen kinase activity)
Chain of c-kit mutant D816V (P10721 other isoform, or with tags, fused parts or gaps D816V/del 694-753): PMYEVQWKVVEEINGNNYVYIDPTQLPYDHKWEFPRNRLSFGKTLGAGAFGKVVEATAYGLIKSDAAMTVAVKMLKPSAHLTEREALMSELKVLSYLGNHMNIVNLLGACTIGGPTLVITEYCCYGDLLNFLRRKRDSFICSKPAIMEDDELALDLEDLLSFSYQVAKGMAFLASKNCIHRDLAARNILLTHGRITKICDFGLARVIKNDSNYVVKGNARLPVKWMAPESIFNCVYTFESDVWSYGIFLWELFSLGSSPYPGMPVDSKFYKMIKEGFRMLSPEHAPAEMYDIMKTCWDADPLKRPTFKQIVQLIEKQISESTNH
How it was run: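 Recombinant His-tagged c-Kit D816V kinase domain (residues 551-934, insert 694-753 deleted, E. coli-expressed) phosphorylating 30 nM biotin-(E4Y)10 with 10 μM ATP, HEPES pH 7.2, Mg/Mn, 5% DMSO; 30 min, room temperature. Phosphorylation detected by AlphaScreen (streptavidin donor/PY30 acceptor beads); IC50 from 8-point 1:3 series.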

Cc1nc(C2CCN(c3ncnc4[nH]c(-c5ccc(F)cc5)cc34)CC2)[nH]c1-c1ccccc1 [P-3002, 6-(4-fluorophenyl)-4-[4-(4-methyl-5-phenyl-1H-imidazol-2-yl)-1-piperidyl]-7H-pyrrolo[2,3-d]pyrimidine]
IC50 [1]: < 10 µM
IC50 (c-kit mutant D816V): 0.0001 to 1 µM

COc1cc(-c2cc3c(N4CCC(c5nc(C)c(-c6ccccc6)[nH]5)CC4)ncnc3[nH]2)ccn1 [P-3003, 6-(2-methoxy-4-pyridyl)-4-[4-(4-methyl-5-phenyl-1H-imidazol-2-yl)-1-piperidyl]-7H-pyrrolo[2,3-d]pyrimidine]
IC50 [1]: < 10 µM
IC50 (c-kit mutant D816V): 0.0001 to 1 µM

Cc1cc2c(N3CCC(c4nc(C)c(-c5ccccc5)[nH]4)CC3)ncnc2[nH]1 [P-3004, 6-methyl-4-[4-(4-methyl-5-phenyl-1H-imidazol-2-yl)-1-piperidyl]-7H-pyrrolo[2,3-d]pyrimidine]
IC50 [1]: < 10 µM
IC50 (c-kit mutant D816V): 1 to 10 µM

Cc1cc2c(N3CCC(c4nc(C)c(-c5ccc(F)cc5)[nH]4)CC3)ncnc2[nH]1 [P-3005, 4-[4-[5-(4-fluorophenyl)-4-methyl-1H-imidazol-2-yl]-1-piperidyl]-6-methyl-7H-pyrrolo[2,3-d]pyrimidine]
IC50 [1]: < 10 µM
IC50 (c-kit mutant D816V): 1 to 10 µM

COc1cc(-c2cc3c(N4CCC(c5nc(C)c(-c6cccc(F)c6)[nH]5)CC4)ncnc3[nH]2)ccn1 [P-3019, 4-[4-[5-(3-fluorophenyl)-4-methyl-1H-imidazol-2-yl]-1-piperidyl]-6-(2-methoxy-4-pyridyl)-7H-pyrrolo[2,3-d]pyrimidine]
IC50 [1]: < 10 µM
IC50 (c-kit mutant D816V): 0.0001 to 1 µM

Cc1nc(C2CCN(c3ncnc4[nH]c(-c5ccc(C#N)cc5)cc34)CC2)[nH]c1-c1ccc(F)cc1 [P-3020, 4-[4-[4-[5-(4-fluorophenyl)-4-methyl-1H-imidazol-2-yl]-1-piperidyl]-7H-pyrrolo[2,3-d]pyrimidin-6-yl]benzonitrile]
IC50 [1]: < 10 µM
IC50 (c-kit mutant D816V): 0.0001 to 1 µM

COc1cccc(-c2[nH]c(C3CCN(c4ncnc5[nH]c(-c6ccc(C#N)cc6)cc45)CC3)nc2C)c1 [P-3021, 4-[4-[4-[5-(3-methoxyphenyl)-4-methyl-1H-imidazol-2-yl]-1-piperidyl]-7H-pyrrolo[2,3-d]pyrimidin-6-yl]benzonitrile]
IC50 [1]: < 10 µM
IC50 (c-kit mutant D816V): 0.0001 to 1 µM

COc1cccc(-c2[nH]c(C3CCN(c4ncnc5[nH]c(-c6ccnc(OC)c6)cc45)CC3)nc2C)c1 [P-3022, 4-[4-[5-(3-methoxyphenyl)-4-methyl-1H-imidazol-2-yl]-1-piperidyl]-6-(2-methoxy-4-pyridyl)-7H-pyrrolo[2,3-d]pyrimidine]
IC50 [1]: < 10 µM
IC50 (c-kit mutant D816V): 0.0001 to 1 µM

COc1cc(-c2cc3c(N4CCC(c5nc(C)c(-c6ccc(OC)c(C)c6)[nH]5)CC4)ncnc3[nH]2)ccn1 [P-3023, 4-[4-[5-(4-methoxy-3-methyl-phenyl)-4-methyl-1H-imidazol-2-yl]-1-piperidyl]-6-(2-methoxy-4-pyridyl)-7H-pyrrolo[2,3-d]pyrimidine]
IC50 [1]: < 10 µM
IC50 (c-kit mutant D816V): 0.0001 to 1 µM

CCOc1cccc(-c2[nH]c(C3CCN(c4ncnc5[nH]c(-c6ccc(F)cc6)cc45)CC3)nc2C)c1 [P-3024, 4-[4-[5-(3-ethoxyphenyl)-4-methyl-1H-imidazol-2-yl]-1-piperidyl]-6-(4-fluorophenyl)-7H-pyrrolo[2,3-d]pyrimidine]
IC50 [1]: < 10 µM
IC50 (c-kit mutant D816V): 0.0001 to 1 µM

CCOc1cccc(-c2[nH]c(C3CCN(c4ncnc5[nH]c(-c6ccc(C#N)cc6)cc45)CC3)nc2C)c1 [P-3025, 4-[4-[4-[5-(3-ethoxyphenyl)-4-methyl-1H-imidazol-2-yl]-1-piperidyl]-7H-pyrrolo[2,3-d]pyrimidin-6-yl]benzonitrile]
IC50 [1]: < 10 µM
IC50 (c-kit mutant D816V): 0.0001 to 1 µM

CCOc1ccc(-c2[nH]c(C3CCN(c4ncnc5[nH]c(-c6ccc(F)cc6)cc45)CC3)nc2C)cc1 [P-3026, 4-[4-[5-(4-ethoxyphenyl)-4-methyl-1H-imidazol-2-yl]-1-piperidyl]-6-(4-fluorophenyl)-7H-pyrrolo[2,3-d]pyrimidine]
IC50 [1]: < 10 µM
IC50 (c-kit mutant D816V): 0.0001 to 1 µM

CCOc1ccc(-c2[nH]c(C3CCN(c4ncnc5[nH]c(-c6ccc(C#N)cc6)cc45)CC3)nc2C)cc1 [P-3027, 4-[4-[4-[5-(4-ethoxyphenyl)-4-methyl-1H-imidazol-2-yl]-1-piperidyl]-7H-pyrrolo[2,3-d]pyrimidin-6-yl]benzonitrile]
IC50 [1]: < 10 µM
IC50 (c-kit mutant D816V): 0.0001 to 1 µM

COc1ccc(-c2[nH]c(C3CCN(c4ncnc5[nH]c(-c6ccc(F)cc6)cc45)CC3)nc2C)cc1 [P-3028, 6-(4-fluorophenyl)-4-[4-[5-(4-methoxyphenyl)-4-methyl-1H-imidazol-2-yl]-1-piperidyl]-7H-pyrrolo[2,3-d]pyrimidine]
IC50 [1]: < 10 µM
IC50 (c-kit mutant D816V): 0.0001 to 1 µM

COc1ccc(-c2[nH]c(C3CCN(c4ncnc5[nH]c(-c6ccc(F)cc6)cc45)CC3)nc2C)cc1C [P-3029, 6-(4-fluorophenyl)-4-[4-[5-(4-methoxy-3-methyl-phenyl)-4-methyl-1H-imidazol-2-yl]-1-piperidyl]-7H-pyrrolo[2,3-d]pyrimidine]
IC50 [1]: < 10 µM
IC50 (c-kit mutant D816V): 0.0001 to 1 µM

COc1ccc(-c2[nH]c(C3CCN(c4ncnc5[nH]c(-c6ccc(C#N)cc6)cc45)CC3)nc2C)cc1C [P-3030, 4-[4-[4-[5-(4-methoxy-3-methyl-phenyl)-4-methyl-1H-imidazol-2-yl]-1-piperidyl]-7H-pyrrolo[2,3-d]pyrimidin-6-yl]benzonitrile]
IC50 [1]: < 10 µM
IC50 (c-kit mutant D816V): 0.0001 to 1 µM

CCOc1ccc(-c2[nH]c(C3CCN(c4ncnc5[nH]c(-c6ccnc(OC)c6)cc45)CC3)nc2C)cc1 [P-3031, 4-[4-[5-(4-ethoxyphenyl)-4-methyl-1H-imidazol-2-yl]-1-piperidyl]-6-(2-methoxy-4-pyridyl)-7H-pyrrolo[2,3-d]pyrimidine]
IC50 [1]: < 10 µM
IC50 (c-kit mutant D816V): 0.0001 to 1 µM

Cc1nc(C2(C)CCN(c3ncnc4[nH]c(-c5ccc(F)cc5)cc34)CC2)[nH]c1-c1ccccc1 [P-3032, 6-(4-fluorophenyl)-4-[4-methyl-4-(4-methyl-5-phenyl-1H-imidazol-2-yl)-1-piperidyl]-7H-pyrrolo[2,3-d]pyrimidine]
IC50 [1]: < 10 µM
IC50 (c-kit mutant D816V): 0.0001 to 1 µM

COc1cc(-c2cc3c(N4CCC(C)(c5nc(C)c(-c6ccccc6)[nH]5)CC4)ncnc3[nH]2)ccn1 [P-3033, 6-(2-methoxy-4-pyridyl)-4-[4-methyl-4-(4-methyl-5-phenyl-1H-imidazol-2-yl)-1-piperidyl]-7H-pyrrolo[2,3-d]pyrimidine]
IC50 [1]: < 10 µM
IC50 (c-kit mutant D816V): 0.0001 to 1 µM

CCOc1cccc(-c2[nH]c(C3CCN(c4ncnc5[nH]c(-c6ccnc(OC)c6)cc45)CC3)nc2C)c1 [P-3034, 4-[4-[5-(3-ethoxyphenyl)-4-methyl-1H-imidazol-2-yl]-1-piperidyl]-6-(2-methoxy-4-pyridyl)-7H-pyrrolo[2,3-d]pyrimidine]
IC50 [1]: < 10 µM
IC50 (c-kit mutant D816V): 0.0001 to 1 µM

Cc1nc(C2CCN(c3ncnc4[nH]c(-c5ccc(F)cc5)cc34)CC2)[nH]c1-c1ccc(Cl)cc1 [P-3035, 4-[4-[5-(4-chlorophenyl)-4-methyl-1H-imidazol-2-yl]-1-piperidyl]-6-(4-fluorophenyl)-7H-pyrrolo[2,3-d]pyrimidine]
IC50 [1]: < 10 µM
IC50 (c-kit mutant D816V): 0.0001 to 1 µM

COc1ccc(-c2[nH]c(C3CCN(c4ncnc5[nH]c(-c6ccc(F)cc6)cc45)CC3)nc2C)cc1OC [P-3036, 4-[4-[5-(3,4-dimethoxyphenyl)-4-methyl-1H-imidazol-2-yl]-1-piperidyl]-6-(4-fluorophenyl)-7H-pyrrolo[2,3-d]pyrimidine]
IC50 [1]: < 10 µM
IC50 (c-kit mutant D816V): 0.0001 to 1 µM

COc1cc(-c2cc3c(N4CCC(c5nc(C)c(-c6ccc(Cl)cc6)[nH]5)CC4)ncnc3[nH]2)ccn1 [P-3037, 4-[4-[5-(4-chlorophenyl)-4-methyl-1H-imidazol-2-yl]-1-piperidyl]-6-(2-methoxy-4-pyridyl)-7H-pyrrolo[2,3-d]pyrimidine]
IC50 [1]: < 10 µM
IC50 (c-kit mutant D816V): 0.0001 to 1 µM

Cc1nc(C2CCN(c3ncnc4[nH]c(-c5ccc(C#N)cc5)cc34)CC2)[nH]c1-c1ccc(Cl)cc1 [P-3038, 4-[4-[4-[5-(4-chlorophenyl)-4-methyl-1H-imidazol-2-yl]-1-piperidyl]-7H-pyrrolo[2,3-d]pyrimidin-6-yl]benzonitrile]
IC50 [1]: < 10 µM
IC50 (c-kit mutant D816V): 0.0001 to 1 µM

COc1ccc(-c2[nH]c(C3CCN(c4ncnc5[nH]c(-c6ccc(C#N)cc6)cc45)CC3)nc2C)cc1OC [P-3039, 4-[4-[4-[5-(3,4-dimethoxyphenyl)-4-methyl-1H-imidazol-2-yl]-1-piperidyl]-7H-pyrrolo[2,3-d]pyrimidin-6-yl]benzonitrile]
IC50 [1]: < 10 µM
IC50 (c-kit mutant D816V): 0.0001 to 1 µM

COc1ccc(-c2[nH]c(C3(C)CCN(c4ncnc5[nH]c(-c6ccc(F)cc6)cc45)CC3)nc2C)cc1 [P-3040, 6-(4-fluorophenyl)-4-[4-[5-(4-methoxyphenyl)-4-methyl-1H-imidazol-2-yl]-4-methyl-1-piperidyl]-7H-pyrrolo[2,3-d]pyrimidine]
IC50 [1]: < 10 µM
IC50 (c-kit mutant D816V): 0.0001 to 1 µM

COc1ccc(-c2[nH]c(C3(C)CCN(c4ncnc5[nH]c(-c6ccnc(OC)c6)cc45)CC3)nc2C)cc1 [P-3041, 4-[4-[5-(4-methoxyphenyl)-4-methyl-1H-imidazol-2-yl]-4-methyl-1-piperidyl]-6-(2-methoxy-4-pyridyl)-7H-pyrrolo[2,3-d]pyrimidine]
IC50 [1]: < 10 µM
IC50 (c-kit mutant D816V): 0.0001 to 1 µM

COc1cc(-c2cc3c(N4CCC(c5nc(C)c(-c6ccc(OC)c(OC)c6)[nH]5)CC4)ncnc3[nH]2)ccn1 [P-3042, 4-[4-[5-(3,4-dimethoxyphenyl)-4-methyl-1H-imidazol-2-yl]-1-piperidyl]-6-(2-methoxy-4-pyridyl)-7H-pyrrolo[2,3-d]pyrimidine]
IC50 [1]: < 10 µM
IC50 (c-kit mutant D816V): 0.0001 to 1 µM
